Reference: patent US20010006697A1, “Composition and method for producing low cholesterol eggs” (priority 1997, published 2001)
Where “and” joins values, the source holds several entries; their conditions need not be identical. Identical values can stand only once. Like-named read-outs stand apart in the source and are kept apart here. Marks after values point to notes of the source that are not given here.

What was measured:
laying hens [1] = test: Yolk cholesterol contents of eggs from statin-treated laying hens; format: in vivo, White Leghorn hens
Experimental: Agric. […] Hens were treated as described in Example 1. […] The eggs were hard-cooked, and the yolks were separated, weighed, and crumbled. […] Agric. […] Egg homogenate filtrates were analyzed for cholesterol as described in Rudel, L. L. and Morris, M. D., J. Lipid Res. 14:364-366 (1973).

laying hens [2] = test: Egg production, egg weights and yolk weights of statin-treated laying hens; format: in vivo, White Leghorn hens
Experimental: Hens were treated as described in Example 1. Egg yolk was weighed as outlined in Example 2.

[3] = test system: apolipoprotein B (apoB) mRNA; test: Northern blot of liver mRNA: apoB; format: in vivo, White Leghorn hens; conditions: normalized by 18S rRNA; day 35
Text: Endocrinol. […] Endocrinol.

laying hens [4] = conditions: 0.03% or 0.06% of diet; day 35
laying hens [5] = conditions: 0.03% or 0.06% of diet; day 35; remark: listed apart in the source
plasma VLDL particles [6] = conditions: day 35
plasma VLDL particles [7] = conditions: day 35; remark: listed apart in the source
[8] = test system: microsomal triglyceride transport protein (MTP) large subunit mRNA; conditions: normalized by 18S rRNA; day 35
laying hens [9] = test: Liver cholesterol content; conditions: day 35
[10] = Liver weight of statin-treated laying hens; conditions: day 35
[11] = 0.06% of diet, week 5 (maximal reduction for simvastatin, lovastatin)
[12] = 0.03% of diet, Overall (weeks 1-5)
[13] = 0.06% of diet, Overall (weeks 1-5)

Egg weight, g (laying hens [2]; [12]): 65.0 ± 1.4^a (155) g
Hen-day egg production, % (laying hens [2]; [12]): 88.6 ± 2.4^a (155) %
Yolk weight, g (laying hens [2]; [12]): 17.7 ± 0.2^a (25) g
Egg weight, g (laying hens [2]; 0.03% of diet, Week 1): 64.9 ± 0.7^a g
Hen-day egg production, % (laying hens [2]; 0.03% of diet, Week 1): 91.4 ± 1.2^a %
Yolk weight, g (laying hens [2]; 0.03% of diet, Week 1): 17.9 ± 0.7^a g
Egg weight, g (laying hens [2]; 0.03% of diet, Week 2): 64.3 ± 0.8^a,b g
Hen-day egg production, % (laying hens [2]; 0.03% of diet, Week 2): 88.6 ± 1.0^a %
Yolk weight, g (laying hens [2]; 0.03% of diet, Week 2): 17.4 ± 0.8^a g
Egg weight, g (laying hens [2]; 0.03% of diet, Week 3): 65.1 ± 0.7^a g
Hen-day egg production, % (laying hens [2]; 0.03% of diet, Week 3): 85.7 ± 1.0^a %
Yolk weight, g (laying hens [2]; 0.03% of diet, Week 3): 17.8 ± 0.5^a g
Egg weight, g (laying hens [2]; 0.03% of diet, Week 4): 65.8 ± 0.6^a g
Hen-day egg production, % (laying hens [2]; 0.03% of diet, Week 4): 88.6 ± 1.8^a %
Yolk weight, g (laying hens [2]; 0.03% of diet, Week 4): 17.8 ± 0.4^a g
Egg weight, g (laying hens [2]; 0.03% of diet, Week 5): 64.7 ± 0.7^a g
Hen-day egg production, % (laying hens [2]; 0.03% of diet, Week 5): 88.6 ± 1.0^a %
Yolk weight, g (laying hens [2]; 0.03% of diet, Week 5): 17.8 ± 0.5^a g
effect on production variables (egg production, egg weight, yolk weight) (laying hens [2]; 0.03% or 0.06% of diet, P>0.05): did not affect
Egg weight, g (laying hens [2]; [13]): 63.8 ± 1.8^a (155) g
Hen-day egg production, % (laying hens [2]; [13]): 88.6 ± 2.9^a (155) %
Yolk weight, g (laying hens [2]; [13]): 17.4 ± 0.3^a (25) g
Egg weight, g (laying hens [2]; 0.06% of diet, Week 1): 62.6 ± 1.9^a g
Hen-day egg production, % (laying hens [2]; 0.06% of diet, Week 1): 88.6 ± 1.0^a,b %
Yolk weight, g (laying hens [2]; 0.06% of diet, Week 1): 17.4 ± 1.0^a g
Egg weight, g (laying hens [2]; 0.06% of diet, Week 2): 64.0 ± 0.7^a,b g
Hen-day egg production, % (laying hens [2]; 0.06% of diet, Week 2): 85.7 ± 1.5^a,b %
Yolk weight, g (laying hens [2]; 0.06% of diet, Week 2): 17.3 ± 0.7^a g
Egg weight, g (laying hens [2]; 0.06% of diet, Week 3): 65.3 ± 1.1^a g
Hen-day egg production, % (laying hens [2]; 0.06% of diet, Week 3): 88.6 ± 1.0^a %
Yolk weight, g (laying hens [2]; 0.06% of diet, Week 3): 17.7 ± 0.6^a g
Egg weight, g (laying hens [2]; 0.06% of diet, Week 4): 63.3 ± 0.8^b,c g
Hen-day egg production, % (laying hens [2]; 0.06% of diet, Week 4): 88.6 ± 1.8^a %
Yolk weight, g (laying hens [2]; 0.06% of diet, Week 4): 17.2 ± 0.9^a,b g
Egg weight, g (laying hens [2]; 0.06% of diet, Week 5): 62.9 ± 0.8^a,b g
Hen-day egg production, % (laying hens [2]; 0.06% of diet, Week 5): 91.4 ± 1.2^a %
Yolk weight, g (laying hens [2]; 0.06% of diet, Week 5): 17.3 ± 0.7^a g
Liver Weight g ([10]; 0.03% of diet): 31.4 ± 1.4^b g
Liver Weight g/100 g BW ([10]; 0.03% of diet): 1.81 ± 0.09^a,b g/100 g BW
Liver Weight g ([10]; 0.06% of diet): 28.8 ± 0.9^b,c g
Liver Weight g/100 g BW ([10]; 0.06% of diet): 1.76 ± 0.05^b g/100 g BW
SMILES: CC[C@H](C)C(=O)O[C@H]1C[C@@H](C)C=C2C=C[C@H](C)[C@H](CC[C@@H]3C[C@@H](O)CC(=O)O3)[C@H]21 [Lovastatin]
Yolk cholesterol content, mg cholesterol/g yolk (laying hens [1]; 0.03% of diet, Week 0): 11.0 ± 0.2^a mg cholesterol/g yolk
Yolk cholesterol content, mg cholesterol/yolk (laying hens [1]; 0.03% of diet, Week 0): 195.7 ± 6.8^a mg cholesterol/yolk
Yolk cholesterol content, mg cholesterol/g yolk (laying hens [1]; 0.03% of diet, Week 1): 10.7 ± 0.2^b mg cholesterol/g yolk
Yolk cholesterol content, mg cholesterol/yolk (laying hens [1]; 0.03% of diet, Week 1): 192.2 ± 6.5^a mg cholesterol/yolk
Yolk cholesterol content, mg cholesterol/g yolk (laying hens [1]; 0.03% of diet, Week 2): 11.1 ± 0.2^a,b mg cholesterol/g yolk
Yolk cholesterol content, mg cholesterol/yolk (laying hens [1]; 0.03% of diet, Week 2): 193.8 ± 6.6^a mg cholesterol/yolk
Yolk cholesterol content, mg cholesterol/g yolk (laying hens [1]; 0.03% of diet, Week 3): 10.8 ± 0.2^b mg cholesterol/g yolk
Yolk cholesterol content, mg cholesterol/yolk (laying hens [1]; 0.03% of diet, Week 3): 192.3 ± 5.1^a mg cholesterol/yolk
Yolk cholesterol content, mg cholesterol/g yolk (laying hens [1]; 0.03% of diet, Week 4): 10.9 ± 0.2^a,b mg cholesterol/g yolk
Yolk cholesterol content, mg cholesterol/yolk (laying hens [1]; 0.03% of diet, Week 4): 193.9 ± 4.2^a mg cholesterol/yolk
Yolk cholesterol content, mg cholesterol/g yolk (laying hens [1]; 0.03% of diet, Week 5): 10.8 ± 0.1^b mg cholesterol/g yolk
Yolk cholesterol content, mg cholesterol/yolk (laying hens [1]; 0.03% of diet, Week 5): 193.6 ± 4.0^a,b mg cholesterol/yolk
Yolk cholesterol content, mg cholesterol/g yolk (laying hens [1]; 0.06% of diet, Week 0): 10.9 ± 0.1^a mg cholesterol/g yolk
Yolk cholesterol content, mg cholesterol/yolk (laying hens [1]; 0.06% of diet, Week 0): 197.8 ± 4.3^a mg cholesterol/yolk
Yolk cholesterol content, mg cholesterol/g yolk (laying hens [1]; 0.06% of diet, Week 1): 10.7 ± 0.1^b mg cholesterol/g yolk
Yolk cholesterol content, mg cholesterol/yolk (laying hens [1]; 0.06% of diet, Week 1): 185.5 ± 8.4^a,b mg cholesterol/yolk
Yolk cholesterol content, mg cholesterol/g yolk (laying hens [1]; 0.06% of diet, Week 2): 10.8 ± 0.1^b,c mg cholesterol/g yolk
Yolk cholesterol content, mg cholesterol/g yolk (laying hens [1]; 0.06% of diet, Week 3): 10.5 ± 0.1^b,c mg cholesterol/g yolk
Yolk cholesterol content, mg cholesterol/yolk (laying hens [1]; 0.06% of diet, Week 3): 184.6 ± 5.1^a,b mg cholesterol/yolk
Yolk cholesterol content, mg cholesterol/g yolk (laying hens [1]; 0.06% of diet, Week 4): 10.9 ± 0.2^a,b mg cholesterol/g yolk
Yolk cholesterol content, mg cholesterol/yolk (laying hens [1]; 0.06% of diet, Week 4): 187.1 ± 7.2^a,b mg cholesterol/yolk
Yolk cholesterol content, mg cholesterol/g yolk (laying hens [1]; 0.06% of diet, Week 5): 10.8 mg cholesterol/g yolk and 10.8 ± 0.1^b mg cholesterol/g yolk
Yolk cholesterol content, mg cholesterol/yolk (laying hens [1]; 0.06% of diet, Week 5): 186.9 mg cholesterol/yolk and 186.9 ± 4.3^a,b mg cholesterol/yolk
yolk cholesterol reduction from control on a per yolk (egg) basis (laying hens [1]; [11]): 7%
yolk cholesterol reduction from control per g of yolk (mg/g basis) (laying hens [1]; [11]): 7%
hepatic apoB mRNA, linear contrasts (P≦0.05) [3]: control>lovastatin
effect on plasma total cholesterol (plasma lipid variables) (laying hens [4]): did not significantly affect
effect on plasma triglycerides (plasma lipid variables) (laying hens [5]): did not significantly affect
Plasma VLDL particle Diameter nm (plasma VLDL particles [6]; 0.03% of diet): 35.5 ± 0.1^a,b nm
Plasma VLDL particle Diameter nm (plasma VLDL particles [6]; 0.06% of diet): 34.8 ± 0.1^a,b nm
Plasma VLDL composition: EC (esterified cholesterol) (plasma VLDL particles [7]; 0.03% of diet): 0.06 ± 0.01^a,b %
Plasma VLDL composition: PC (phosphatidylcholine) (plasma VLDL particles [7]; 0.03% of diet): 11.99 ± 0.18^b %
Plasma VLDL composition: PE (phosphatidylethanolamine) (plasma VLDL particles [7]; 0.03% of diet): 3.76 ± 0.33^a %
Plasma VLDL composition: Protein (plasma VLDL particles [7]; 0.03% of diet): 17.37 ± 0.70^a %
Plasma VLDL composition: SM (sphingomyelin) (plasma VLDL particles [7]; 0.03% of diet): 1.08 ± 0.31^a %
Plasma VLDL composition: TG (triglyceride) (plasma VLDL particles [7]; 0.03% of diet): 62.78 ± 1.01^a %
Plasma VLDL composition: UC (unesterified cholesterol) (plasma VLDL particles [7]; 0.03% of diet): 2.94 ± 0.11^a %
Plasma VLDL composition: EC (esterified cholesterol) (plasma VLDL particles [7]; 0.06% of diet): 0.08 ± 0.02^a,b %
Plasma VLDL composition: PC (phosphatidylcholine) (plasma VLDL particles [7]; 0.06% of diet): 12.07 ± 0.82^b %
Plasma VLDL composition: PE (phosphatidylethanolamine) (plasma VLDL particles [7]; 0.06% of diet): 3.46 ± 0.93^a %
Plasma VLDL composition: Protein (plasma VLDL particles [7]; 0.06% of diet): 19.96 ± 1.32^a %
Plasma VLDL composition: SM (sphingomyelin) (plasma VLDL particles [7]; 0.06% of diet): 0.66 ± 0.23^a %
Plasma VLDL composition: TG (triglyceride) (plasma VLDL particles [7]; 0.06% of diet): 60.74 ± 1.22^a %
Plasma VLDL composition: UC (unesterified cholesterol) (plasma VLDL particles [7]; 0.06% of diet): 3.03 ± 0.34^a %
hepatic MTP large subunit mRNA, linear contrasts (P≦0.05) [8]: lovastatin>atorvastatin
Liver Cholesterol mg/g liver (laying hens [9]; 0.03% of diet): 3.0 ± 0.05^b,c mg/g liver
Liver Cholesterol mg/liver (laying hens [9]; 0.03% of diet): 95.7 ± 3.3^a mg/liver
Liver Cholesterol mg/g liver (laying hens [9]; 0.06% of diet): 3.1 ± 0.07^b mg/g liver
Liver Cholesterol mg/liver (laying hens [9]; 0.06% of diet): 90.2 ± 3.6^a mg/liver
